According to paper PMC12336229, “Peptide-mimetics derived from leucyl-tRNA synthetase are potential agents for the therapy of mt-tRNA related diseases” (Frontiers in Pharmacology, 2025):

What was measured:
[1] = test system: control cells (WT and L-8344 cybrids); assay: Cell viability in galactose medium (Trypan blue dye exclusion); assay type: cell-based, human; conditions: WT and L-8344 cells; 24 h galactose medium
Description: (§1) Previously established osteosarcoma-derived (143B.TK-) cybrid cell lines from patients, which bear either the m.3243A>G mutation in mt-tRNA^Leu(UUR) or the m.8344A>G mutation in mt-tRNA^Lys and controls ([Perli et al., 2014]; [Perli et al., 2016]; [Perli et al., 2020]) were used.
(§2) Cybrid cells were cultured in Dulbecco’s modified Eagle’s medium (DMEM), supplemented with 4.5 g/L D-glucose, 10% foetal bovine serum (FBS), 2 mM L-glutamine, 50 μg/ML uridine, 100 U/mL penicillin, and […] (referred to as glucose medium) in a humidified atmosphere of 95% air and 5% CO2 at 37°C. For cell viability experiments, cells were grown either in glucose medium or in glucose-free DMEM, supplemented with 5 mM galactose, […], and 10% FBS (referred to as galactose medium). The reason for using the latter medium is that a pathological phenotype can be appreciated in cells growing on galactose, which forces cells to rely on mitochondrial respiration, but not in cells growing on glucose.
(§3) To assess growth capability, cells were harvested and seeded at 30 × 10^4 in 60 mm dishes in glucose medium for 24 h with the addition of one of the compounds. Cells were switched in glucose or galactose and, after 24 h, cell viability was measured by the Trypan blue dye exclusion assay. Cells were harvested with 0.25% trypsin and 0.2% EDTA, washed, suspended in PBS in the presence of Trypan blue solution (Sigma–Aldrich) at 1:1 ratio and counted using a hemocytometer. The number of viable cells in the galactose medium was expressed as a percentage of the number of cells in glucose medium.

[2] = test system: m.8344A>G mutant cybrids (H-8344); assay: as above; assay type: cell-based, human; conditions: 5 µM; 24 h galactose medium; compared with non-treated mutant cells; at least three independent experiments
Description: as §1, §2, §3

m.3243A>G mutant cybrids = assay: as above; assay type: cell-based, human; conditions: 5 µM; 24 h galactose medium; compared with non-treated mutant cells; at least three independent experiments
Description: as §1, §2, §3

Adult C57BL/6 male mice [3] = assay: Morphological analysis of selected organs (hematoxylin and eosin); assay type: in vivo, mouse; conditions: 1, 5 and 10 mg/kg i.v.; hematoxylin and eosin sections; treated vs controls
Description: (§4) After the test, mice were sacrificed under general anaesthesia (4% isoflurane in medical air) by cardiac puncture to withdraw blood, brain, heart, liver, kidney, spleen, and lymph nodes, which were collected into tubes with buffered formalin and stored at +4°C.
At the end of the tolerability test, tissues collected from animals injected with saline (n = 5) or treated with 1, 5 and 10 mg/kg of PMT (n = 10), were formalin-fixed and paraffin-embedded. Five µm-thick sections were obtained from the paraffin blocks and stained with hematoxylin and eosin for histologic examination.

Adult C57BL/6 male mice [4] = assay: Tolerability in animals (i.v., scores, body weight, grid-hanging test); assay type: in vivo
Description: Sixty adult C57BL/6 male mice were initially included in the study. Twenty animals were dedicated to in vivo/ex vivo biodistribution of the radiolabelled PMT ^64Cu-PMT. The evaluation was carried out at four time points: 1, 3, 24 and 48 h. Forty animals were dedicated to tolerability studies with increasing PMT concentration: 1, 5, 10 and 50 mg/kg PMT or saline, i. v. (n = 10 per group). […] Therefore, only three groups of ten animals were dedicated to the tolerability test, and fifty C57BL/6 male mice were employed for the current study in total. […] Due to the rapidity of death, and the hydrophobic character of the C-terminal region of the PMT (see the Discussion section), it is possible that PMT aggregates obstructed one or more small vessels, causing micro-infarctions in vital organs (e.g., lung, heart, brain).
Adult C57BL/6 male mice were used to determine the general tolerability of i. v. administered PMT and identify the Maximum Tolerated Dose (MTD). To this purpose, animals were divided into four groups (n = 10 each) and injected in a tail vein with either saline (controls) or PMT freshly dissolved in saline at three scalar doses (1, 5 or 10 mg/kg). Each group was randomly divided in two subgroups (n = 5 each). Blood ocular withdrawal was performed at 1 h and 48 h post-injection for each subgroup, respectively. During this procedure, animals were anaesthetized with isoflurane (2% in medical air) and monitored until awakening.
The effect of PMT administration was evaluated every 2 days by observation of the animals and application of the following criteria and scores (see Supplementary Table S1): body weight loss (score: 1–5); coat conditions (score: 1–3); dehydration (score: 1–3); respiration (score: 1–3); spontaneous behaviour (score: 0–5); reaction to handling (score: 0–3) (IACUC of the San Raffaele Research Institute and FELASA Glossary 2015 ([Fentener van Vlissingen et al., 2015]).
The observation was carried out for 2 weeks post peptide injection. At the end, all the animals underwent a grid-hanging test to measure muscular strength performances after PMT or saline treatment ([Gayi et al., 2018]).
After a period of habituation to the metallic grid, mice were placed individually on top of a metallic grid (40 × 40 cm, 1.3 cm square mesh) suspended 50 cm above an empty cage. The grid was turned upside down and latency to fall was measured up to a fixed limit of 600 s. Each mouse performed three trials and the longest holding time (s) among them was multiplied by the animal’s body weight (g) to calculate Holding impulse (g*s).
as §4
Data on PMT tolerability in animals (i.e., body mass monitoring and grip-hanging test) are expressed as mean ± SD and analysed using one-way ANOVA corrected for multiple comparison Turkey test.

CC[C@@H](C)[C@@H](NC(=O)[C@@H](CC(C)C)NC(=O)[C@@H](C)NC(=O)[C@H](NC(=O)[C@@H](CCCNC(=N)N)NC(=O)[C@H]1CCCN1C(=O)[C@@H](CO)NC(=O)[C@@H](CC(C)C)NC(=O)[C@@H](Cc1ccccc1)NC(=O)[C@@H](CO)NC(=O)[C@@H](CCCCN)NC(=O)[C@H](N)CCCCN)[C@H](C)O)C(=O)N[C@H](CC(N)=O)C(=O)N[C@H](Cc1ccccc1)C(=O)N[C@H](CC(C)C)C(=O)N[C@@H](C(N)=O)C(C)C [PMT]
Cell viability of control cells [1]: do not affect | Cell viability (viable cells in galactose as % of glucose medium) [2]: significant improvement of cell viability | Cell viability (viable cells in galactose as % of glucose medium) (m.3243A>G mutant cybrids): significant improvement of cell viability | Morphological change in organs or tissues (Adult C57BL/6 male mice [3]): did not reveal any morphological change | Tolerability after a single i.v. acute administration (Adult C57BL/6 male mice [4]; 1, 5 and 10 mg/kg, wild-type mice, 14 days of observation): well tolerated | Mice with decrease of body weight (score 4) (Adult C57BL/6 male mice [4]; mouse, in vivo): 1/10 | Mice with mild tachypnoea (score 1) (Adult C57BL/6 male mice [4]; mouse, in vivo): 5/10 | Mice with slight decrease of body weight (score 1) (Adult C57BL/6 male mice [4]; mouse, in vivo): 5/10 | Mice with slight decrease of body weight (score 1–2) (Adult C57BL/6 male mice [4]; mouse, in vivo): 5/10 | Outcome of the highest dose (Adult C57BL/6 male mice [4]; mouse, in vivo): died immediately after the administration | Safe dosage (Adult C57BL/6 male mice [4]; mouse, in vivo, iv): up to 10 mg/kg | Necropsy finding (Adult C57BL/6 male mice [4]; mouse, in vivo, iv, 50 mg/kg): did not highlight any obvious macroscopic effect
